Several values for one entry are separate records, joined by “and”; a condition that tells them apart may be missing. Identical values can stand only once. Toxic doses and inconclusive results are not listed. Cut-off read from the data, not from the text of the source: active = T/C of 150% or more; inactive = T/C below 125%.
System: L1210 leukemia ip in BDF1 mice, survival T/C
Test: NCI In Vivo Anticancer Drug Screen. Data for tumor model L1210 Leukemia (intraperitoneal) in B6D2F1 (BDF1) mice
Details: endpoint: mean survival time, higher = longer survival
How it was run: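 Tumor cells were implanted, animals were treated, and survival was followed. The result divides the treated measurement by the vehicle-control measurement.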

[1] = dose: 100.0 mg/kg/injection, schedule: Q01DX009 (ip), vehicle: Klucel (hydroxypropylcellulose) (HPC)
[2] = dose: 100.0 mg/kg/injection, schedule: Q04DX003 (ip), vehicle: Klucel (hydroxypropylcellulose) (HPC)
[3] = dose: 200.0 mg/kg/injection, schedule: Q01DX009 (ip), vehicle: Klucel (hydroxypropylcellulose) (HPC)
[4] = dose: 200.0 mg/kg/injection, schedule: Q04DX003 (ip), vehicle: Klucel (hydroxypropylcellulose) (HPC)
[5] = dose: 400.0 mg/kg/injection, schedule: Q01DX009 (ip), vehicle: Klucel (hydroxypropylcellulose) (HPC)
[6] = dose: 400.0 mg/kg/injection, schedule: Q04DX003 (ip), vehicle: Klucel (hydroxypropylcellulose) (HPC)
[7] = dose: 100.0 mg/kg/injection, schedule: Q04DX002 (ip), vehicle: Klucel (hydroxypropylcellulose) (HPC)
[8] = dose: 200.0 mg/kg/injection, schedule: Q04DX002 (ip), vehicle: Klucel (hydroxypropylcellulose) (HPC)
[9] = dose: 400.0 mg/kg/injection, schedule: Q04DX002 (ip), vehicle: Klucel (hydroxypropylcellulose) (HPC)
[10] = dose: 100.0 mg/kg/injection, schedule: Q04DX003 (ip), vehicle: saline with Tween-80
[11] = dose: 200.0 mg/kg/injection, schedule: Q04DX003 (ip), vehicle: saline with Tween-80
[12] = dose: 400.0 mg/kg/injection, schedule: Q04DX003 (ip), vehicle: saline with Tween-80
[13] = dose: 100.0 mg/kg/injection, schedule: Q01DX001 (ip), vehicle: Klucel (hydroxypropylcellulose) (HPC)
[14] = dose: 200.0 mg/kg/injection, schedule: Q01DX001 (ip), vehicle: Klucel (hydroxypropylcellulose) (HPC)
[15] = dose: 400.0 mg/kg/injection, schedule: Q01DX001 (ip), vehicle: Klucel (hydroxypropylcellulose) (HPC)
[16] = dose: 100.0 mg/kg/injection, schedule: Q04DX003 (ip), vehicle: saline
[17] = dose: 200.0 mg/kg/injection, schedule: Q04DX003 (ip), vehicle: saline
[18] = dose: 400.0 mg/kg/injection, schedule: Q04DX003 (ip), vehicle: saline

Measured: T/C

COc1cccc(/C=c2\[nH]c(=O)/c(=C/c3cccc(OC)c3OC)[nH]c2=O)c1OC
inactive: [1] 94 % of control | [2] 88 % of control | [3] 87 % of control | [4] 91 % of control | [5] 96 % of control | [6] 91 % of control

C[N+]1(C)OCC2CCCC(c3ccccc3)C21 (centres undefined)
inactive: dose: 12.5 mg/kg/injection, schedule: Q01DX001 (ip), vehicle: saline 104 % of control | dose: 25.0 mg/kg/injection, schedule: Q01DX001 (ip), vehicle: saline 102 % of control | dose: 50.0 mg/kg/injection, schedule: Q01DX001 (ip), vehicle: saline 98 % of control

CCOC(=O)C1(C(=O)OCC)C(C)CC(=O)N1c1ccccc1OC (centres undefined)
inactive: [7] 106 % of control | [8] 103 % of control | [9] 97 % of control

COc1ccc(/C=C(\C#N)c2ccc([N+](=O)[O-])cc2)cc1[N+](=O)[O-]
inactive: [7] 105 % of control | [8] 105 % of control | [9] 102 % of control

Nc1nc(-c2cc(Br)ccc2N=NN2CCOCC2)nc2ccc(Br)cc12
inactive: [7] 105 % of control | [8] 96 % of control | [9] 89 % of control

O=c1[nH]c2ccccc2c(=O)n1CCCN1CCN(c2cccc(Cl)c2)CC1
inactive: [1] 108 % of control | [7] 111 % of control | [3] 108 % of control | [8] 114 % of control | [5] 108 % of control | [9] 104 % of control

CNC(=O)Nc1ccc(C)c(Cl)c1
inactive: [1] 100 % of control | [2] 102 % of control | [3] 90 % of control | [4] 102 % of control | [5] 106 % of control | [6] 104 % of control

O=C1OC(=O)C2C3CC(C(Br)C3Br)C12 (centres undefined)
inactive: [10] 102 % of control | [11] 98 % of control | [12] 101 % of control

CCCCC(CC)CNC1CCCCC1 (centres undefined)
inactive: dose: 75.0 mg/kg/injection, schedule: Q01DX009 (ip), vehicle: Klucel (hydroxypropylcellulose) (HPC) 98 % of control | [7] 101 % of control | dose: 150.0 mg/kg/injection, schedule: Q01DX009 (ip), vehicle: Klucel (hydroxypropylcellulose) (HPC) 101 % of control | [8] 97 % of control

CC(=O)Nc1ccc(NC(=O)Nc2ccc(C)cc2[N+](=O)[O-])cc1
inactive: [2] 92 % of control | [4] 86 % of control | [6] 94 % of control

O=C(CCCCC(=O)Nc1cc(C2=NCCN2)cc(C2N=CCN2)c1)Nc1cc(C2=NCCN2)cc(C2=NCCN2)c1 (centres undefined)
inactive: dose: 2.2 mg/kg/injection, schedule: Q01DX Z (ip), vehicle: methylcellulose (MC) 96 % of control | dose: 3.0 mg/kg/injection, schedule: Q01DX Z (ip), vehicle: methylcellulose (MC) 106 % of control | dose: 5.0 mg/kg/injection, schedule: Q01DX Z (ip), vehicle: carboxymethylcellulose (CMC) 120 % of control | dose: 5.0 mg/kg/injection, schedule: Q01DX Z (ip), vehicle: methylcellulose (MC) 101 % of control | dose: 9.0 mg/kg/injection, schedule: Q01DX Z (ip), vehicle: methylcellulose (MC) 87 % of control | dose: 10.0 mg/kg/injection, schedule: Q01DX Z (ip), vehicle: carboxymethylcellulose (CMC) 100 % of control | dose: 15.0 mg/kg/injection, schedule: Q01DX Z (ip), vehicle: carboxymethylcellulose (CMC) 94 % of control

O=C(O)c1ccc(Oc2ccc([N+](=O)[O-])cc2)cc1
inactive: [13] 94 % of control | [2] 102 % of control | [14] 102 % of control | [4] 92 % of control | [15] 108 % of control | [6] 96 % of control

CCCCCCCC(=O)Nc1c(C)cc(C)cc1C
inactive: [10] 95 % of control | [11] 92 % of control | [12] 93 % of control

O=C(c1ccccc1Cl)c1cccc2ccccc12
inactive: [16] 115 % of control | [17] 100 % of control | [18] 106 % of control

CO[C@@H]1CCCCCC[C@H]1[Hg][Cl]
inactive: dose: 2.0 mg/kg/injection, schedule: Q01DX015 (ip), vehicle: carboxymethylcellulose (CMC) 104 % of control | dose: 4.0 mg/kg/injection, schedule: Q01DX015 (ip), vehicle: carboxymethylcellulose (CMC) 95 % of control | dose: 5.0 mg/kg/injection, schedule: Q01DX001 (ip), vehicle: carboxymethylcellulose (CMC) 108 % of control | dose: 8.0 mg/kg/injection, schedule: Q01DX015 (ip), vehicle: carboxymethylcellulose (CMC) 101 % of control | dose: 10.0 mg/kg/injection, schedule: Q01DX001 (ip), vehicle: carboxymethylcellulose (CMC) 112 % of control | dose: 16.0 mg/kg/injection, schedule: Q01DX015 (ip), vehicle: carboxymethylcellulose (CMC) 93 % of control | dose: 20.0 mg/kg/injection, schedule: Q01DX001 (ip), vehicle: carboxymethylcellulose (CMC) 114 % of control | dose: 40.0 mg/kg/injection, schedule: Q01DX001 (ip), vehicle: carboxymethylcellulose (CMC) 108 % of control

CSC(=O)C(C)(C)C
inactive: dose: 75.0 mg/kg/injection, schedule: Q01DX001 (ip), vehicle: saline 103 % of control | dose: 150.0 mg/kg/injection, schedule: Q01DX001 (ip), vehicle: saline 97 % of control

COC(=O)c1cc(/C=C/c2ccccc2)ccc1[N+](=O)[O-]
inactive: dose: 50.0 mg/kg/injection, schedule: Q04DX003 (ip), vehicle: alcohol 90 % of control | dose: 100.0 mg/kg/injection, schedule: Q04DX003 (ip), vehicle: alcohol 101 % of control | dose: 200.0 mg/kg/injection, schedule: Q04DX003 (ip), vehicle: alcohol 104 % of control

CCCCCCCCCCC(=O)CCC
inactive: dose: 50.0 mg/kg/injection, schedule: Q01DX009 (ip), vehicle: Klucel (hydroxypropylcellulose) (HPC) 92 % of control | [1] 97 % of control | [2] 95 % of control and 98 % of control | [4] 90 % of control | [6] 95 % of control and 100 % of control

CC1C(=O)CCC2(C)CCCCC12 (centres undefined)
inactive: dose: 75.0 mg/kg/injection, schedule: Q01DX001 (ip), vehicle: other 103 % of control | dose: 150.0 mg/kg/injection, schedule: Q01DX001 (ip), vehicle: other 101 % of control | dose: 300.0 mg/kg/injection, schedule: Q01DX001 (ip), vehicle: other 103 % of control

CCCCCCC1CCC(N)CC1 (centres undefined)
inactive: dose: 6.25 mg/kg/injection, schedule: Q04DX002 (ip), vehicle: saline with Tween-80 95 % of control | dose: 12.5 mg/kg/injection, schedule: Q04DX002 (ip), vehicle: saline with Tween-80 95 % of control | dose: 25.0 mg/kg/injection, schedule: Q04DX002 (ip), vehicle: saline with Tween-80 113 % of control

CC(=O)CCC(=O)OCCCl
inactive: dose: 50.0 mg/kg/injection, schedule: Q01DX009 (ip), vehicle: saline 102 % of control | dose: 100.0 mg/kg/injection, schedule: Q01DX009 (ip), vehicle: saline 101 % of control | dose: 200.0 mg/kg/injection, schedule: Q01DX009 (ip), vehicle: saline 101 % of control

O=C(Oc1cccc(OC(=O)c2ccc(Cl)cc2)c1)c1ccc(Cl)cc1
inactive: [13] 100 % of control | [1] 112 % of control | [14] 100 % of control | [3] 110 % of control | [15] 93 % of control | [5] 108 % of control

O=C1O/C(=C\c2ccccc2)c2c(Br)c(Br)c(Br)c(Br)c21
inactive: dose: 100.0 mg/kg/injection, schedule: Q01DX001 (ip), vehicle: carboxymethylcellulose (CMC) 94 % of control | dose: 200.0 mg/kg/injection, schedule: Q01DX001 (ip), vehicle: carboxymethylcellulose (CMC) 91 % of control | dose: 400.0 mg/kg/injection, schedule: Q01DX001 (ip), vehicle: carboxymethylcellulose (CMC) 96 % of control

CCCCCCCCCC/C=N/Nc1ccc([N+](=O)[O-])cc1[N+](=O)[O-]
inactive: dose: 50.0 mg/kg/injection, schedule: Q01DX001 (ip), vehicle: saline with Tween-80 93 % of control | dose: 100.0 mg/kg/injection, schedule: Q01DX001 (ip), vehicle: saline with Tween-80 92 % of control | dose: 200.0 mg/kg/injection, schedule: Q01DX001 (ip), vehicle: saline with Tween-80 93 % of control

CC(=O)N=C1CCCC1C#N (centres undefined)
inactive: [1] 101 % of control | [16] 105 % of control | [3] 101 % of control | [17] 109 % of control | [5] 95 % of control | [18] 100 % of control

— PubChem BioAssay AID248 (DTP/NCI, 2004)
